Experimental data as given in article PMC7822874, “Chemoprotective antimalarials identified through quantitative high-throughput screening of Plasmodium blood and liver stage parasites” (Scientific Reports, 2021).
Where “and” joins values, the source holds several entries; their conditions need not be identical. Identical values can stand only once. Like-named read-outs stand apart in the source and are kept apart here.

Key:
[1] = test system: T1, Plasmodium falciparum Dd2-attB (parental line), asexual blood stages; assay: microbe, parasite or virus in culture; parameters: replicate k of 3 (each line is one of three independent assays; the three lines of one compound and parasite line follow each other); conditions: n = 1; for AC50: Plasmodium falciparum, DD2, 72 h; for Individual replicates / Log AC50 (M): 72 h
T1 construct: Dd2-attB, the isogenic parental line
Method: The overexpression of the fumarate-dependent yeast DHODH confers resistance to compounds that inhibit the parasite mETC, or the parasite DHODH enzyme that depends on ubiquinone provided by the parasite mETC. Assays were performed in three independent assays on a subset of compounds, and differences between the Dd2-attB parental line and the ScDHODH transgenic line were analyzed using two-sided Student’s t-tests.

[2] = test system: Plasmodium falciparum Dd2 asexual blood stage parasites; assay: microbe, parasite or virus in culture; parameters: species or system Plasmodium falciparum Dd2 in human erythrocytes; single determination (one 11-point concentration-response curve); conditions: Plasmodium falciparum, DD2, Erythrocyte, 72 h; read-out: AC50
in vitro = conditions: human
[3] = test system: P. berghei-ANKA-GFP-LucCON liver stage parasites in HepG2-A16-CD81EGFP cells; assay: P. berghei liver stage Pb-Luc assay, Method 1 (UCSD, 1536-well); assay type: cell-based, Plasmodium berghei; conditions: Plasmodium berghei, 48 h, average of 2 wells, 1536-well plate; for activity at 1 µM: nominal 1 uM (10 mM stock), […] for 15 mM, 1.2 uM for 12 mM, 2 uM for 20 mM stock; for activity at 3 µM: nominal 3 uM (10 mM stock), 4.5 uM for 15 mM, 3.6 uM for 12 mM, 6 uM for 20 mM stock; as to all read-outs here: reference of the scale not given here
[4] = read-out: Individual replicates / Log AC50 (converted)
[5] = nominal 1 uM (10 mM stock), […] for 15 mM, 1.2 uM for 12 mM, 2 uM for 20 mM stock, average of 2 wells, repeat 2
[6] = nominal 3 uM (10 mM stock), 4.5 uM for 15 mM, 3.6 uM for 12 mM, 6 uM for 20 mM stock, average of 2 wells, repeat 2
[7] = HepG2-A16-CD81EGFP cells, uninfected
[8] = repeat 1, read-out: Pb-Luc signal, 1 uM, repeat 1
[9] = repeat 2, read-out: Pb-Luc signal, 1 uM, repeat 2
[10] = repeat 3, read-out: Pb-Luc signal, 1 uM, repeat 3
[11] = repeat 1, read-out: Pb-Luc signal, 3 uM, repeat 1
[12] = repeat 2, read-out: Pb-Luc signal, 3 uM, repeat 2
[13] = repeat 3, read-out: Pb-Luc signal, 3 uM, repeat 3

Row | Compound | AC50 [1, 4] | Individual replicates / Log AC50 (M) [1] | HepG2 viability signal, 1 uM, repeat 2 (HepG2-A16-CD81EGFP cells; [5]) | HepG2 viability signal, 3 uM, repeat 2 (HepG2-A16-CD81EGFP cells; [6]) | AC50 [2] | viability at 48 h, 1 µM (in vitro; [7]) | viability at 48 h, 3 µM (in vitro; [7]) | activity at 1 µM [3, 8] | activity at 1 µM [3, 9] | activity at 1 µM [3, 10] | activity at 3 µM [3, 11] | activity at 3 µM [3, 12] | activity at 3 µM [3, 13] | other results
1 | Cc1ccc(CN2C(=O)C(O)(CC(=O)c3ccc(C)cc3)c3ccccc32)cc1 (centres unmarked) [NCGC00099997-03] | 1.78e-05 M | – | – | – | – | – | – | – | – | – | – | – | – | –
2 | Cc1nnc2c3ccccc3nc(N3CCN(c4ccccc4)CC3)n12 [NCGC00107295-02] | – | -4.8986 Log AC50 (M) and -4.9986 Log AC50 (M) | – | – | – | – | – | – | – | – | – | – | – | –
3 | Cc1cccc(N2CCN(C(=O)Cn3ncc4c3-c3ccccc3OC4)CC2)c1C [NCGC00112661-02] | 1.42e-05 M | – | – | – | – | – | – | – | – | – | – | – | – | –
4 | O=C(c1ccccc1F)N1c2nc(-c3ccco3)nn2C2(CCCCC2)[C@@H]2CCCC[C@@H]21 [NCGC00118206-02] | 1.59e-05 M | -4.7986 Log AC50 (M) | – | – | – | – | – | – | – | – | – | – | – | –
5 | COc1ccc(NC(=O)CN2C(=O)CCn3nc(-c4cccn4C)cc32)cc1Cl [NCGC00132050-02] | 8.94e-06 M | -4.9986 Log AC50 (M) | – | – | – | – | – | – | – | – | – | – | – | –
6 | CN1CCN(c2cnc3c(O)ccc(C(=O)O)c3c2)CC1 [NCGC00241033-01] | 1.78e-05 M | -4.8986 Log AC50 (M) and -4.9486 Log AC50 (M) | – | – | – | – | – | – | – | – | – | – | – | –
7 | O=C(O)c1ccc(O)c2ncc(N3CCN(Cc4ccccc4)CC3)cc12 [NCGC00241045-03] | 1.78e-05 M | – | – | – | – | – | – | – | – | – | – | – | – | –
8 | O=C(O)c1ccc(O)c2ncc(N3CCN(Cc4ccccc4)CC3)cc12 [NCGC00241045-04] | – | -4.6986 Log AC50 (M) and -4.7986 Log AC50 (M) (2×) | – | – | – | – | – | – | – | – | – | – | – | –
9 | O=C(O)c1ccc(O)c2ncc(N3CCCCC3CCc3ccccn3)cc12 (centres unmarked) [NCGC00241756-01] | 2e-05 M | – | – | – | – | – | – | – | – | – | – | – | – | –
10 | O=C(NCCCN1CCNCC1)c1cccc(-c2cc(O)c3ncccc3c2)c1 [NCGC00244531-01] | 1.59e-05 M | – | – | – | – | – | – | – | – | – | – | – | – | –
11 | O=C(NC1CC1)c1cccc(-c2cc(O)c3ncccc3c2)c1 [NCGC00247738-01] | – | – | – | – | – | – | – | – | – | – | – | – | – | AC50 ([1]; read-out: Individual replicates / Log AC50 (M) (converted)): 1.78e-05 M
12 | CN(C)CCCCCCNC(=O)c1cccc(-c2cc(O)c3ncccc3c2)c1 [NCGC00247743-01] | 2e-05 M | – | – | – | – | – | – | – | – | – | – | – | – | –
13 | CCOC(=O)CCNc1cc(N2CCc3ccccc3CC2)nc(-c2ccccn2)n1 [NCGC00344626-02] | 6.33e-06 M | -5.0486 Log AC50 (M) and -5.0986 Log AC50 (M) | – | – | – | – | – | – | – | – | – | – | – | –
14 | CCOC(=O)c1ccncc1Nc1nn(CCN2CCC(F)(F)CC2)c2ccc(F)cc12 [NCGC00388588-01] | 1.59e-05 M | -4.7486 Log AC50 (M) and -4.7986 Log AC50 (M) | – | – | – | – | – | – | – | – | – | – | – | –
15 | c1ccc(CCn2nc(-c3cnccn3)nc2CCCN2CCCCC2)cc1 [NCGC00390063-01] | 7.97e-06 M | – | – | – | – | – | – | – | – | – | – | – | – | –
16 | NC(=O)c1csc(-n2cc(Cc3ccc([S+](N)(=O)[O-])cc3)c(-c3cccc(-c4ccccc4)c3)n2)n1 [NCGC00390757-01] | 2e-05 M | -4.9986 Log AC50 (M) and -4.8486 Log AC50 (M) | – | – | – | – | – | – | – | – | – | – | – | –
17 | Cc1nn2c(c1-c1ccccc1-c1ccccc1)N(Cc1ccccc1)CCC2 [NCGC00420451-02] | 1.59e-05 M | – | – | – | – | – | – | – | – | – | – | – | – | –
18 | CCN(Cc1ccccc1)C(=O)CCC[C@@H]1[C@H]2CCCN3CCC[C@@H](CN1C(=O)c1ccccc1)[C@@H]23 [NCGC00429496-01] | – | – | 99.16% | 100.31% | 13.3 µM | 93.4% | 93.8% | 107% | 115% | 85.5% | 89.3% | 121% | 99.6% | –
19 | CCOC(=O)C1(Cc2ccccc2Cl)CCNCC1 [NCGC00430911-01] | – | – | 100.98% | 101.65% | 2.66 µM | 94.6% | 94.7% | 78.1% | 97.3% | 89.2% | 74.5% | 106% | 93.5% | –
20 | Fc1ccc(N2CCCN(C[C@H]3[C@@H]4CNC[C@@H]43)CC2)cc1 [NCGC00435915-01] | – | – | 103.90% | 120.28% | 8.41 µM | 102% | 124% | 97.7% | 120% | 120% | 53.5% | 38.2% | 21.5% | –
21 | CCOc1ccc(Cl)cc1CN(C)CC1(O)CCCNC1 (centres unmarked) [NCGC00439019-01] | – | – | 100.51% | 101.33% | 2.99 µM | 99.5% | 96.9% | 133% | 111% | 171% | 102% | 113% | 128% | –
22 | COc1cccc([C@@H]2CCN(Cc3[nH]c4ccccc4c3C)C[C@H]2O)c1 [NCGC00443267-01] | – | – | – | – | 1.5 µM | – | – | 83.1% | 92.1% | 74.1% | 85.2% | 118% | 62.2% | HepG2 viability signal, 1 uM, repeat 2 (HepG2-A16-CD81EGFP cells; human, 48 h, 1 µM): 93.46%; HepG2 viability signal, 3 uM, repeat 2 (HepG2-A16-CD81EGFP cells; human, 48 h, 3 µM): 93.99%; viability at 48 h, 1 µM (in vitro): 91.9%; viability at 48 h, 3 µM (in vitro): 96.2%
23 | COc1ccc(-c2noc(-c3cccn3CC(=O)Nc3ccccc3F)n2)cc1F [NCGC00445496-01] | – | – | – | 99.66% | 4.22 µM | 98.5% | 101% | 109% | 140% | 144% | 172% | 189% | 163% | –
24 | COc1ccc(-c2noc(-c3cccn3CC(=O)Nc3ccccc3)n2)cc1F [NCGC00445500-01] | – | – | 98.82% | 102.85% | 2.37 µM | 103% | 105% | 155% | 167% | 187% | 187% | 192% | 169% | –
25 | CCOc1ccccc1CN1CCCN(Cc2ccncc2)C(c2ccccc2)CC(=O)NCC1 (centres unmarked) [NCGC00467181-01] | – | – | 96.74% | 96.24% | 6.68 µM | 101% | 96.8% | 105% | 89.1% | 111% | 102% | 80.2% | 86.4% | –
26 | Cn1nc(C(=O)NCC(=O)N2CCCCCCNC(=O)CC2c2ccccc2)c2ccccc21 (centres unmarked) [NCGC00467428-01] | – | – | 105.85% | 101.81% | 2.11 µM | 108% | 106% | 90.2% | 74% | 75.4% | 105% | 88.2% | 105% | –
27 | Cc1cnc(CC2CCN([S+](=O)([O-])c3ccccc3)CC2)n1Cc1ccccc1 [NCGC00469740-01] | – | – | 97.06% | 98.63% | 5.31 µM | 94.7% | 96.4% | 97.2% | 133% | 138% | 81.1% | 76.7% | 90.7% | –
28 | COc1ccccc1NC(=O)N1CCOc2ccc(CN3CCc4ccccc4C3)cc2C1 [NCGC00471234-01] | – | – | 96.28% | 96.50% | 2.37 µM | 98% | 96.8% | 118% | 82% | 108% | 110% | 87.1% | 47% | –
29 | CN1CCC(CNCc2nccc3c(=O)[nH]c(COc4ccc(Cc5ccccc5)cc4)nc23)C1 (centres unmarked) [NCGC00489856-02] | – | -4.7486 Log AC50 (M) | – | – | – | – | – | – | – | – | – | – | – | –
30 | c1ccc(CN2CCCn3ncc(-c4ccccc4-c4ccccc4)c32)cc1 [NCGC00499205-01] | 1.59e-05 M | -4.8486 Log AC50 (M) | – | – | – | – | – | – | – | – | – | – | – | –
